From US10851073B2, “Protein tyrosine phosphatase inhibitors and methods of use thereof” (Calico Life Sciences LLC, priority 2019, dated 2020) come the findings set out here.

SMILES strings stand for the structures. Where two headings read alike, the source gives them in different places. A value given as a limit tells only on which side of the number the result lay.

Test [1] concerns the target T1, His tagged PTPN2 (TC45) protein (Homo sapiens, UniProt P17706).
T1 construct: made in house
T1 sequence (P17706 with tags, fused parts or gaps isoform P17706-2): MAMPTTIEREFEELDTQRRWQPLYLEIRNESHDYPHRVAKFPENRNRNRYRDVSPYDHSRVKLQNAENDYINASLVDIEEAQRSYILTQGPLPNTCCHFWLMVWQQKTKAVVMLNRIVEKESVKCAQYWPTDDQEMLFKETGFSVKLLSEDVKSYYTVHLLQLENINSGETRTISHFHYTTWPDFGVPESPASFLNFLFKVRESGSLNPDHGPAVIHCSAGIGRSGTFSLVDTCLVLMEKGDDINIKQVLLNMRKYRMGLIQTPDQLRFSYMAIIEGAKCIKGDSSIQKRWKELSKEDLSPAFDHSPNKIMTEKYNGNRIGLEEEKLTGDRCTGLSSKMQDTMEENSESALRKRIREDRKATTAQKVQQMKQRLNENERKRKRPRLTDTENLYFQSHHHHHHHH
Briefly: Mobility shift assay used to determine potency of PTPN2 inhibitors. In kind it is biochemical. The conditions noted are these: enzyme 0.5 nM, substrate 2 μM; read-out: PTPN2 MSA IC50. An outline of the steps:
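Microfluidic mobility-shift read-out (488/530 nm) of dephosphorylation of an OG488-tagged phosphotyrosine insulin receptor peptide, 2 μM, over 10 min at room temperature, after 10 min compound preincubation with 0.5 nM enzyme. Buffer: 50 mM HEPES pH 7.5, EGTA, EDTA, Tween 20, DTT. IC50 derived from % inhibition over 12-point 1:3 series.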

Test [2] has as its system IFNγ-induced STAT1 phosphorylation in CD14+ monocytes. Description: Human whole blood pSTAT1 proximal pharmacodynamic (PD) assay. It counts as cell-based. The conditions noted are these: Monocyte, 3 hours compound, IFNγ 20 minutes. The protocol: Example 230: Human Whole Blood pSTAT1 Proximal Pharmacodynamic (PD) Assay Human blood samples were acquired through internal AbbVie Inc's blood donation program in accordance with AbbVie's Occupational Safety and Health Administration protocols. Blood was collected by venipuncture into sodium heparin coated vacutainer tubes and kept at room temperature for no longer than 1 hour prior to the experiment initiation. Human blood samples (90 μL) were added to the individual wells of 96-well plates containing 10 μL of 10× working stock solutions of increasing concentrations of compounds to achieve final concentrations ranging from 0.025 μM to 500 μM and incubated for 3 hours at 37° C. To induce STAT1 phosphorylation the samples were then treated with recombinant human IFNγ (R&D Systems, Catalog^#285-IF, Minneapolis, Minn.; 100 nM final concentration) for 20 minutes, and 3 μL/well BV421 labeled anti-CD14 surface antibody (Biolegend, San Diego, Calif., Catalog^#301830) was added for 45 minutes before fixation and red blood cell lysis was performed with BD Phosflow Lyse/Fix buffer (BD Biosciences, San Jose, Calif., Catalog^#558049). Cells were subsequently permeabilized on ice by the addition of BD Perm III buffer (BD Biosciences, San Jose, Calif., Catalog^#558050) and stored at -80° C. until use. Before staining, the cells were washed with PBS containing 0.1% BSA. Optim/zed concentrations of BUV395 labeled anti-CD45 (BD Biosciences, San Jose, Calif., Catalog^#563792) and PE labeled anti-phospho-STAT1 ([…]; Invitrogen, Carlsbad, Calif., Catalog^#12-9008-42) antibodies were added to the cell suspensions and incubated for 2 hours. The cells were washed with PBS containing 0.1% BSA and analyzed on a BD LSRFortessaTM X20 flow cytometer (BD Biosciences, San Jose, Calif.) using BD FACSDivaTM software. The data was analyzed using FlowJo V10 analysis software (Flow Jo LLC, Ashland, Oreg.). The amount of STAT phosphorylation was measured by the mean fluorescence intensity (MFI) of pSTAT1 in CD14+monocytes. Compound dose-response curves were determined using a four-parameter logistic-nonlinear regression model from which half maximal effective concentrations (EC50) were calculated. All statistical analyses utilized GraphPad software (San Diego, Calif.).

Test [3] concerns B16F10 mouse melanoma cells. Briefly: B16F10 IFNγ-induced cellular growth inhibition assay. The conditions noted are these: B16-F10, with 0.5 ng/mL IFNγ. In kind it is cell-based. An outline of the steps:
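B16F10 cells grown in DMEM+10% FBS, with or without 0.5 ng/mL final mouse IFNγ, and dosed in triplicate at 100 μM to 0.001 μM final (0.1% DMSO). Confluence imaged every 6 h for 5 days; percent growth inhibition versus DMSO/with-IFNγ control taken once DMSO/no-IFNγ wells exceeded 95% confluence, giving IC50.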

Test [4] deals with Pan T cells isolated from C57BL6 splenocytes. Briefly: T cell function assays (IFNγ and TNFα in supernatants). It counts as cell-based, mouse. The conditions noted are these: 0.3 μM compound, 3 days. The protocol:
Example 231: T Cell Function Assays Pan T cells were isolated from C57BL6 splenocytes using a MACS Pan T cell isolation kit II (Miltenyi Biotec, Auburn, Calif.) according to the manufacturer's instructions. Isolated T cells (200,000 cells/well in a 96 well flat-bottom plate) were cultured in RPMI 1640 supplemented with 10% FBS, […] 2-mercaptoethanol, 100 U/mL penicillin, and 100 μg/mL streptomycin, and incubated with 0.3 μM compound or DMSO in duplicates. After 1 hour, mouse T cell activator CD3/CD28 Dynabeads (ThermoFisher Scientific, Waltham, Mass.) were added at a 1:5 beads to cells ratio to stimulate the T cells for 3 days. T cells with or without compound were incubated in the absence of T cell activator beads to evaluate if compounds nonspecifically stimulate the T cells. After 3 days of stimulation, supernatants were collected and IFNγ and TNFα in supernatants were assessed using an MSD V-plex assay (Meso Scale Discovery, Rockville, Md.).

Where [5] appears, read: read-out: B16F10 Growth Inhibition IC50.

As for `O=C1CN(c2c(O)cc3c(c2F)C[C@H](NCCCC(F)(F)F)CC3)S(=O)(=O)N1` (single isomer, unassigned) [Compound 146], the figures for the IC50 in test [1], in test [3] (read-out: B16F10 GI IC50) and in test [3] (setting [5]) were 1 to 10 nM, under 1000 nM and under 50 nM, respectively. Further, the EC50 in test [2] amounted to 400 nM.
On to `CC(C)(O)CCOc1ccc2cc(O)c(N3CC(=O)NS3(=O)=O)c(F)c2c1` [Compound Y], for which, in test [4] (anti-CD3/CD28 stimulation), the “IFNγ [pg/mL] anti-CD3/CD28” value came out at 67.2 pg/mL and the “TNFα [pg/mL] anti-CD3/CD28” value is reported as 32.5 pg/mL. Besides, in test [4] (no stimulation), the “IFNγ [pg/mL] no stimulation” value came to 1.2 pg/mL and the “TNFα [pg/mL] no stimulation” value was determined as 1.0 pg/mL. In test [2], this compound showed an EC50 of 38000 nM. In test [3] (setting [5]), the IC50 turned out to be 5800 nM.
Regarding `CCC1CCc2cc(O)c(N3CC(=O)NS3(=O)=O)c(F)c2C1` (stereo not drawn) [Compound Z], in test [2], the concentration giving a half-maximal response (EC50) is over 500000 nM. The IC50 in test [3] (setting [5]) amounted to 17800 nM.
As for `O=C1CN(c2c(O)cc3c(c2F)C[C@H](NCCC2CCCC2)CC3)S(=O)(=O)N1` [Compound 200, 5-{(7R)-7-[(2-cyclopentylethyl)amino]-1-fluoro-3-hydroxy-5,6,7,8-tetrahydronaphthalen-2-yl}-1λ^6,2,5-thiadiazolidine-1,1,3-trione], the EC50 in test [2] was found to be 2400 nM. Besides, the figures for the IC50 in test [3] (read-out: B16F10 GI IC50) and in test [3] (setting [5]) were under 1000 nM and under 50 nM, respectively.

Usually IC50 stands for the point on the concentration scale where inhibition reaches its midpoint. In general, EC50 refers to the concentration at which the effect is half-maximal. Low readings indicate greater potency, high ones weaker potency.
